Results taken from patent US20250144067A1, “PERSONALIZED STARVATION THERAPY FOR CANCER” (Faeth Therapeutics, Inc., priority 2021, published 2025).
Counter-ions that a name gives are not always drawn.

Columns and labels:
[1] = system: NCI-H292 lung cancer cells; test: FDA drug screening, complete media vs cholesterol-free media without statin (TABLE 1); format: cell-based, human
[2] = system: NCI-H292 lung cancer cells; test: FDA drug screening, complete media vs cholesterol-free media with simvastatin (TABLE 2); format: cell-based, human; conditions: for Cholesterol-free media + simvastatin (0.04 μM) / Complete Media: NCI-H292 cells
[3] = Complete minus Cholesterol-free, […]
[4] = NCI-H292 cells, FDA drug library screen, cholesterol-free media without statin
[5] = NCI-H292 cells, FDA drug library screen, complete media
[6] = cholesterol-free media with simvastatin 0.04 μM, […]
[7] = complete media minus cholesterol-free media + simvastatin, […]
[8] = NCI-H292 cells, cholesterol-free media without statin, FDA drug library screen
[9] = NCI-H292 cells, complete media, FDA drug library screen
[10] = FDA library drug in cholesterol-free media with simvastatin 0.04 μM
[11] = FDA library drug in complete media
[12] = complete media vs cholesterol-free media + simvastatin (0.04 μM), >0 enhanced anti-cancer activity, about 0 neutral, <0 antagonist
[13] = NCI-H292 cells in cholesterol-free media without statin
[14] = NCI-H292 cells in complete media
[15] = Complete minus Cholesterol-free, >0 enhanced anti-cancer activity, about 0 neutral, <0 antagonist
[16] = FDA drug library screen, cholesterol-free media with simvastatin 0.04 μM
[17] = FDA drug library screen, complete media
[18] = complete media minus cholesterol-free media + simvastatin, >0 enhanced anti-cancer activity, about 0 neutral, <0 antagonist
[19] = Complete minus Cholesterol-free, greater than 0 enhanced anti-cancer activity, about 0 neutral, below 0 antagonist
[20] = cholesterol-free media with simvastatin 0.04 μM, FDA drug library screen (TABLE 2)
[21] = complete media, FDA drug library screen (TABLE 2)
[22] = complete media minus cholesterol-free media + simvastatin (0.04 μM), >0 enhanced anti-cancer activity, about 0 neutral, <0 antagonist
[23] = NCI-H292 cells, cholesterol-free media without statin
[24] = complete media vs cholesterol-free media + simvastatin (0.04 μM), […]
[25] = complete vs cholesterol-free media, greater than 0 enhanced anti-cancer activity, about 0 neutral, below 0 antagonists
[26] = cholesterol-free media with simvastatin 0.04 μM, cell growth value in FDA drug screen
[27] = complete media, cell growth value in FDA drug screen
[28] = drug in cholesterol-free media with simvastatin 0.04 μM

## Oxytocin (acetate)
[1]; [3]
  Difference: −0.16
[1]; [4]
  Cholesterol-free: 1.734
[1]; [5]
  Complete: 1.57
[2]; [6]
  Cholesterol-free media + simvastatin (0.04 μM): 0.9906
[2]; [7]
  Difference: 0.04

## COc1cc(C2Oc3cc([C@H]4Oc5cc(O)cc(O)c5C(=O)[C@@H]4O)ccc3OC2CO)ccc1O (stereo partly shown) [Silibinin]
[1]; [8]
  Cholesterol-free: 0.9386
[1]; [9]
  Complete: 1.219
[1]; complete vs cholesterol-free media, >0 enhanced anti-cancer activity, about 0 neutral, <0 antagonist
  Difference: 0.28
[2]; [10]
  Cholesterol-free media + simvastatin (0.04 μM): 2.112
[2]; [11]
  Complete Media: 1.696
[2]; [12]
  Difference: −0.42

## C=CC[C@]1(O)CC[C@H]2[C@@H]3CCC4=CCCC[C@@H]4[C@H]3CC[C@@]21C [Allylestrenol]
[1]; [3]
  Difference: −0.56
[1]; [13]
  Cholesterol-free: 1.739
[1]; [14]
  Complete: 1.181
[2]; [6]
  Cholesterol-free media + simvastatin (0.04 μM): 1.288
[2]; complete media, […]
  Complete Media: 1.384
[2]; [7]
  Difference: 0.10

## O=c1c(-c2ccc(O)cc2)coc2cc(O)ccc12 [Daidzein]
[1]; [15]
  Difference: −0.02
[1]; [8]
  Cholesterol-free: 1.1
[1]; [9]
  Complete: 1.082
[2]; [16]
  Cholesterol-free media + simvastatin (0.04 μM): 1.306
[2]; [17]
  Complete Media: 1.614
[2]; [18]
  Difference: 0.31

## O=C(O)CCc1nc(-c2ccccc2)c(-c2ccccc2)o1 [Oxaprozin]
[1]; [19]
  Difference: −0.11
[1]; [4]
  Cholesterol-free: 1.125
[1]; [5]
  Complete: 1.011
[2]; [20]
  Cholesterol-free media + simvastatin (0.04 μM): 0.8941
[2]; [21]
  Complete Media: 0.904
[2]; [22]
  Difference: 0.01

## COP(=S)(OC)Oc1ccc([N+](=O)[O-])c(C)c1 [Fenitrothion]
[1]; [3]
  Difference: −0.22
[1]; [23]
  Cholesterol-free: 0.8622
[1]; NCI-H292 cells, complete media
  Complete: 0.6445
[2]; [16]
  Cholesterol-free media + simvastatin (0.04 μM): 1.585
[2]; [17]
  Complete Media: 1.426
[2]; [24]
  Difference: −0.16

## COc1ccnc(C[S+]([O-])c2nc3cc(-n4cccc4)ccc3[nH]2)c1C (stereo not shown) [Ilaprazole (sodium)]
[1]; [23]
  Cholesterol-free: 1.162
[1]; NCI-H292 cells, complete media
  Complete: 0.7783
[1]; [25]
  Difference: −0.38
[2]; [26]
  Cholesterol-free media + simvastatin (0.04 μM): 1.333
[2]; [27]
  Complete Media: 1.428
[2]; [18]
  Difference: 0.10

## COc1ccc(CCN(C)CCC[C@](C#N)(c2ccc(OC)c(OC)c2)C(C)C)cc1OC.Cl [(R)-Verapamil (hydrochloride)]
[1]; [3]
  Difference: 0.02
[1]; [8]
  Cholesterol-free: 0.8697
[1]; [9]
  Complete: 0.8867
[2]; [16]
  Cholesterol-free media + simvastatin (0.04 μM): 1.005
[2]; [17]
  Complete Media: 0.92
[2]; [24]
  Difference: −0.08

## Nc1ccc(S(=O)(=O)Nc2ccccn2)cc1 [Sulfapyridine]
[1]; [15]
  Difference: −0.02
[1]; [8]
  Cholesterol-free: 0.8112
[1]; [9]
  Complete: 0.7909
[2]; [16]
  Cholesterol-free media + simvastatin (0.04 μM): 1.045
[2]; [17]
  Complete Media: 1.844
[2]; [18]
  Difference: 0.80

## CCC[C@@H]1C[C@@H](C(=O)N[C@@H]([C@H]2O[C@H](SC)[C@H](O)[C@@H](O)[C@H]2O)[C@@H](C)O)N(C)C1 [Lincomycin (hydrochloride monohydrate)]
[1]; [23]
  Cholesterol-free: 1.114
[1]; NCI-H292 cells, complete media
  Complete: 0.7781
[1]; [25]
  Difference: −0.34
[2]; [26]
  Cholesterol-free media + simvastatin (0.04 μM): 0.819
[2]; [27]
  Complete Media: 0.8378
[2]; [18]
  Difference: 0.02

## COC(=O)C1=C(C)NC(C)=C(C(=O)OC2CCCN(Cc3ccccc3)C2)C1c1cccc([N+](=O)[O-])c1 (stereo not shown) [Benidipine (hydrochloride)]
[1]; [23]
  Cholesterol-free: 0.9476
[1]; NCI-H292 cells, complete media
  Complete: 0.5889
[1]; [25]
  Difference: −0.36
[2]; [26]
  Cholesterol-free media + simvastatin (0.04 μM): 1.054
[2]; [18]
  Difference: 0.11

## CC(C)NCC(O)COc1ccc(COCCOC(C)C)cc1.CC(C)NCC(O)COc1ccc(COCCOC(C)C)cc1.O=C(O)/C=C/C(=O)O (racemic) [(±)-Bisoprolol (hemifumarate)]
[1]; [15]
  Difference: −0.20
[1]; [23]
  Cholesterol-free: 1.077
[1]; NCI-H292 cells, complete media
  Complete: 0.8813
[2]; [16]
  Cholesterol-free media + simvastatin (0.04 μM): 0.9429
[2]; [18]
  Difference: 0.21

## C[C@@H]1C[C@H]2[C@@H]3C[C@H](F)C4=CC(=O)C=C[C@]4(C)[C@@]3(F)[C@@H](O)C[C@]2(C)[C@@]1(OC(=O)c1ccco1)C(=O)SCF [Fluticasone furoate]
[1]; [23]
  Cholesterol-free: 1.047
[1]; NCI-H292 cells, complete media
  Complete: 0.6144
[1]; [25]
  Difference: −0.43
[2]; [26]
  Cholesterol-free media + simvastatin (0.04 μM): 0.7104
[2]; [27]
  Complete Media: 0.7486
[2]; [18]
  Difference: 0.04

## CCOC(=O)c1cncn1[C@H](C)c1ccccc1 [Etomidate (hydrochloride)]
[1]; [3]
  Difference: −0.60
[1]; [13]
  Cholesterol-free: 1.469
[1]; [14]
  Complete: 0.8733
[2]; [16]
  Cholesterol-free media + simvastatin (0.04 μM): 0.8714
[2]; [17]
  Complete Media: 1.097
[2]; [7]
  Difference: 0.23

## CCCC(CCC)C(N)=O [Valpromide]
[1]; [15]
  Difference: −0.27
[1]; [23]
  Cholesterol-free: 1.075
[1]; NCI-H292 cells, complete media
  Complete: 0.8044
[2]; [16]
  Cholesterol-free media + simvastatin (0.04 μM): 1.404
[2]; [17]
  Complete Media: 1.717
[2]; [18]
  Difference: 0.31

## CNc1ncc(-c2ccc3c(=O)c(C(=O)O)cn(C4CC4)c3c2C)cc1C [Ozenoxacin]
[1]; [23]
  Cholesterol-free: 1.08
[1]; NCI-H292 cells, complete media
  Complete: 0.7589
[1]; complete vs cholesterol-free media, […]
  Difference: −0.32
[2]; [16]
  Cholesterol-free media + simvastatin (0.04 μM): 0.8626
[2]; [17]
  Complete Media: 0.762
[2]; [24]
  Difference: −0.10

## COc1ccc(CN2CCNCC2)c(OC)c1OC [Trimetazidine (dihydrochloride)]
[1]; [15]
  Difference: −0.30
[1]; [23]
  Cholesterol-free: 1.134
[1]; NCI-H292 cells, complete media
  Complete: 0.836
[2]; [28]
  Cholesterol-free media + simvastatin (0.04 μM): 1.296
[2]; drug in complete media
  Complete Media: 1.112
[2]; [12]
  Difference: −0.18

## Cc1cc(NS(=O)(=O)c2ccc(N)cc2)no1 [Sulfamethoxazole]
[1]; [23]
  Cholesterol-free: 1.301
[1]; NCI-H292 cells, complete media
  Complete: 0.8647
[1]; [25]
  Difference: −0.44
[2]; [28]
  Cholesterol-free media + simvastatin (0.04 μM): 1.223
[2]; drug in complete media
  Complete Media: 1.051
[2]; [12]
  Difference: −0.17

## CONC(=O)Nc1ccc(-c2sc3c(c2CN(C)C)c(=O)n(-c2ccc(OC)nn2)c(=O)n3Cc2c(F)cccc2F)cc1 [Relugolix]
[1]; Complete minus Cholesterol-free, greater than 0 enhanced anti-cancer activity, about 0 neutral, below 0 antagonists
  Difference: −0.64
[1]; [14]
  Complete: 0.978
[2]; [10]
  Cholesterol-free media + simvastatin (0.04 μM): 1.344
[2]; [11]
  Complete Media: 1.077
[2]; [12]
  Difference: −0.27

## CN[C@H]1CC[C@@H](c2ccc(Cl)c(Cl)c2)c2ccccc21 [Sertraline (hydrochloride)]
[1]; [19]
  Difference: −0.11
[1]; [5]
  Complete: 0.9984
[2]; [16]
  Cholesterol-free media + simvastatin (0.04 μM): 0.9083
[2]; [17]
  Complete Media: 1.2
[2]; [18]
  Difference: 0.29

## O=C1NCN(c2ccccc2)C12CCN(CCCC(c1ccc(F)cc1)c1ccc(F)cc1)CC2 [Fluspirilene]
[1]; [23]
  Cholesterol-free: 1.319
[1]; NCI-H292 cells, complete media
  Complete: 0.9067
[1]; [25]
  Difference: −0.41
[2]; [20]
  Cholesterol-free media + simvastatin (0.04 μM): 1.267
[2]; [21]
  Complete Media: 1.241
[2]; [22]
  Difference: −0.03

## Nc1nc2ccc(OC(F)(F)F)cc2s1 [Riluzole hydrochloride]
[1]; [15]
  Difference: −0.27
[1]; [23]
  Cholesterol-free: 1.152
[1]; NCI-H292 cells, complete media
  Complete: 0.8769
[2]; [26]
  Cholesterol-free media + simvastatin (0.04 μM): 0.9663
[2]; [27]
  Complete Media: 0.9877
[2]; [18]
  Difference: 0.02
